The subject of one test is MDA-MB-231. Put plainly: PrestoBlue cell viability, MDA-MB-231. As to conditions: Homo sapiens; breast, MDA-MB-231, 48 h. In kind it is cell-based. On the procedure: (§1) Human lung cancer cells A549, NCl-H460 and 7 cancer cell lines were cultured in RPMI 1640 medium containing 10% FBS (Gibco, USA) and 1% penicillin-streptomycin. Human colon cancer cell HCT-116 cell line was cultured in McCoy's 5A medium containing 10% FBS (Gibco, USA) and 1% penicillin-streptomycin. Human leukemia cancer cell HL-60 cell line was cultured in IMDM medium containing 20% FBS (Gibco, USA) and 1% penicillin-streptomycin. Human normal cell line WI-38 was cultured in MEM containing 10% FBS (Gibco, USA), 1% penicillin-streptomycin, and 1% Non-Essential Amin Acids solution. Human normal cell line HUVEC cultured in Human Endothelial Growth Medium containing. All the cells were cultured in sterilized cell culture plastic dishes or 96-well plastic plates in a humidified incubator filled with 95% air and 5% CO2 gas and maintained at a temperature of 37° C.
(§2) First, the cells are seeded in a 96-well plate (Nunc, 165305) at a volume of 100 μl, and then cultured in an incubator overnight to confirm that they grow well on the plate. Depending on the concentration of the drugs, each well is treated with 100 μl of the compound and then incubated to allow cells and compounds to react for 48 hrs. PrestoBlue Cell Viability Reagent (Invitrogen, A13262) was added to the compound-treated well, and then the plates were incubated in a humidified incubator at 37° C. for 30 mins. Each well was measured at a fluorescence detected with the wavelength of an excitation of 560 nm and an emission of 590 nm using by microplate reader (BioTek, Synergy H1). The IC50 value is calculated by using the Gen5 software.

For a further test, the system named is H460. Put plainly: PrestoBlue cell viability, H460. Type of test: cell-based, Human. The note with it: lung. On the procedure:
as §1, §2

Another test concerns A549. The test is described as follows: PrestoBlue cell viability, A549. In kind it is cell-based, Human. On the procedure:
as §1, §2

The next test concerns HCT-116. The test is described as follows: PrestoBlue cell viability, HCT-116. Type of test: cell-based. The note with it: Homo sapiens; colon, HCF116 (HCT-116), 48 h. On the procedure: as §1, §2
A further test deals with HUVEC. The test is described as follows: PrestoBlue toxicity test, normal cells HUVEC. In kind it is cell-based, Human. As to conditions: 48 h. On the procedure:
as §1, §2

A further test relates to WI-26. The test is described as follows: PrestoBlue toxicity test, normal cells WI-26. Type of test: cell-based, Human. The note with it: WI-26, 48 h.
The subject of a further test is WI-38. The test is described as follows: PrestoBlue toxicity test, normal cells WI-38. Type of test: cell-based, Human. The note with it: WI-38, 48 h. On the procedure:
as §1, §2

The test system of a further test is HL-60. Put plainly: PrestoBlue cell viability, HL-60. In kind it is cell-based, Human. The note with it: HL-60, 48 h, leukemia. On the procedure:
as §1, §2

The test system of another test is K562. The test is described as follows: PrestoBlue cell viability, K562. In kind it is cell-based, Human. As to conditions: for IC50: Homo sapiens, leukemia, K562, 48 h. On the procedure: as §1, §2
A further test deals with CFPAC-1. The test is described as follows: PrestoBlue cell viability, CFPAC-1. In kind it is cell-based. The note with it: Homo sapiens; pancreas, CFPAC-1, 48 h. On the procedure:
as §1, §2

Another test has as its system H1650. The test is described as follows: PrestoBlue cell viability, H1650. In kind it is cell-based. The note with it: Homo sapiens, NCI-H1650; lung, H1650, 48 h. On the procedure:
as §1, §2

The test system of the next test is H146. Put plainly: PrestoBlue cell viability, H146. In kind it is cell-based. As to conditions: Homo sapiens, NCI-H146; lung, H146, 48 h. On the procedure: as §1, §2
For the next test, the system named is H1299. The test is described as follows: PrestoBlue cell viability, H1299. Type of test: cell-based. The note with it: Homo sapiens, NCI-H1299; lung, H1299, 48 h. On the procedure: as §1, §2
In the next test the test system is MCF-7. The test is described as follows: PrestoBlue cell viability, MCF-7. Type of test: cell-based. As to conditions: Homo sapiens, MCF7; breast, MCF-7, 48 h. As to the method: as §1, §2
The test system of the next test is BxPC-3. The test is described as follows: PrestoBlue cell viability, BxPC-3. In kind it is cell-based. As to conditions: Homo sapiens; pancreas, BxPC-3, 48 h. As to the method: as §1, §2
A further test has as its system H1975. Put plainly: PrestoBlue cell viability, H1975. As to conditions: Homo sapiens, NCI-H1975; lung, H1975, 48 h. In kind it is cell-based. As to the method:
as §1, §2

Another test has as its system HCC827. Put plainly: PrestoBlue cell viability, HCC827. Type of test: cell-based. The note with it: Homo sapiens; lung, HCC827, 48 h. As to the method:
as §1, §2

Where [1] appears, read: Homo sapiens, NCI-H460, H460, 48 h.

`C=CCCOc1c(OC)cc([C@@H]2C3=C(COC3=O)Cc3cc4c(cc32)OCO4)cc1OC` [example 5, (5S)-5-(4-But-3-enyloxy-3,5-dimethoxy-phenyl)-5,9-dihydro-8H-furo[3′,4′:6,7]naphtho[2,3-d][1,3]dioxol-6-one]: the IC50 (as a rule, the concentration at which inhibition is half-maximal) is more than 50 µM in the test on MDA-MB-231; not below 50 µM in the test on H460 (Homo sapiens, NCI-H460, 48 h); more than 50 µM with H460 (H460, 48 h); not below 50 µM in the test with A549 (Homo sapiens, A549, 48 h, lung); more than 50 µM in the test on A549 (lung, A549, 48 h); more than 50 µM in the test with HCT-116. Also, the IC50 in the test with HUVEC was more than 50 µM; in the test on HUVEC (Homo sapiens), not below 50 µM; with WI-26 (Homo sapiens, 48 h), not below 50 µM; in the test with WI-38 (Homo sapiens) it was not below 50 µM; with WI-38 it was more than 50 µM; in the test on HL-60 (Homo sapiens), more than 50 µM.
As for `COc1cc([C@@H]2C3=C(COC3=O)Cc3cc4c(cc32)OCO4)cc(OC)c1OCc1ccccc1` [example 3, (5S)-5-(4-Benzyloxy-3,5-dimethoxy-phenyl)-5,9-dihydro-8H-furo[3′,4′:6,7]naphtho[2,3-d][1,3]dioxol-6-one], the IC50 in the test on K562 is more than 50 µM; with MDA-MB-231, more than 50 µM; in the test on CFPAC-1, more than 50 µM; with H460 (setting [1]) it was 0.174 µM; in the test with A549 (Homo sapiens; lung, A549, 48 h), 0.127 µM; with H1650 it was more than 50 µM. For the same molecule, the IC50 is more than 50 µM in the test on H146; 0.234 µM in the test on HCT-116; more than 50 µM in the test on HUVEC; not below 50 µM in the test with HUVEC (Homo sapiens); more than 50 µM in the test on H1299; more than 50 µM in the test with MCF-7. For the same molecule, the IC50 was not below 50 µM with WI-26 (Homo sapiens, 48 h); more than 50 µM with WI-26; more than 50 µM with BxPC-3; more than 50 µM with H1975; not below 50 µM in the test with WI-38 (Homo sapiens); more than 50 µM in the test on WI-38. Further, the IC50 in the test on HL-60 was 0.181 µM; with HCC827, more than 50 µM.
For the molecule `COc1cc([C@@H]2C3=C(COC3=O)Cc3cc4c(cc32)OCO4)cc(OC)c1OCc1ccc(C)cc1` [example 8, (5S)-5-[3,5-Dimethoxy-4-(4-methyl-benzyloxy)-phenyl]-5,9-dihydro-8H-furo[3′,4′:6,7]naphtho[2,3-d][1,3]dioxol-6-one], the IC50 in the test on MDA-MB-231 was more than 50 µM; in the test with H460 (Homo sapiens, NCI-H460, 48 h), not below 50 µM; with H460 (H460, 48 h), more than 50 µM; in the test with A549 (Homo sapiens, A549, 48 h, lung), not below 50 µM; with A549 (lung, A549, 48 h) it was more than 50 µM; in the test on HCT-116, more than 50 µM. The 50% inhibitory concentration (IC50) with HUVEC was more than 50 µM; with HUVEC (Homo sapiens), not below 50 µM; with WI-26 (Homo sapiens, 48 h), not below 50 µM; in the test with WI-38 (Homo sapiens), not below 50 µM; with WI-38, more than 50 µM; with HL-60 (Homo sapiens), more than 50 µM.
As to `COc1cc([C@@H]2C3=C(COC3=O)Cc3cc4c(cc32)OCO4)cc(OC)c1OCC1CCCCC1` [example 4, (5S)-5-(4-Cyclohexylmethoxy-3,5-dimethoxy-phenyl)-5,9-dihydro-8H-furo[3′,4′:6,7]naphtho[2,3-d][1,3]dioxol-6-one], the IC50 in the test on K562 is 0.398 µM; in the test with MDA-MB-231 it was more than 50 µM; with H460 (Homo sapiens, NCI-H460, 48 h) it was 0.796 µM; with A549 (Homo sapiens, A549, 48 h, lung), 0.698 µM; in the test with HCT-116, 1.57 µM; in the test on HUVEC, more than 50 µM. In addition, the IC50 is not below 50 µM in the test with HUVEC (Homo sapiens); not below 50 µM in the test with WI-26 (Homo sapiens, 48 h); not below 50 µM in the test on WI-38 (Homo sapiens); more than 50 µM in the test on WI-38; more than 50 µM in the test on HL-60 (Homo sapiens). The “effects against the blood cancer cell line K562 (in words)” value in the test on K562 is reported as “particularly excellent effects”.
Turning to `COc1cc([C@@H]2C3=C(COC3=O)Cc3cc4c(cc32)OCO4)cc(OC)c1OC(C)=O` [example 1, Acetic acid (5S)-2,6-dimethoxy-4-(6-oxo-5,6,8,9-tetrahydrofuro[3′,4′:6,7]naphtho[2,3-d][1,3]dioxol-5-yl)-phenyl ester], the IC50 with K562 is more than 50 µM; with MDA-MB-231 it was more than 50 µM; with CFPAC-1, more than 50 µM; in the test on H460 (Homo sapiens, NCI-H460, 48 h), 0.06 µM; with A549 (Homo sapiens, A549, 48 h, lung), 0.065 µM; in the test with H1650, more than 50 µM. In addition, the IC50 is more than 50 µM in the test with H146; 0.129 µM in the test with HCT-116; more than 50 µM in the test on HUVEC; not below 50 µM in the test on HUVEC (Homo sapiens); more than 50 µM with H1299; more than 50 µM in the test on MCF-7. For the same molecule, the IC50 is not below 50 µM with WI-26 (Homo sapiens, 48 h); more than 50 µM in the test with WI-26; more than 50 µM in the test on BxPC-3; more than 50 µM in the test with H1975; not below 50 µM with WI-38 (Homo sapiens); more than 50 µM in the test with WI-38. Besides, the IC50 with HL-60 was 0.03 µM; in the test with HCC827 it was more than 50 µM.
On to `COc1cc([C@@H]2c3cc4c(cc3[C@@H](O[C@@H]3O[C@@H]5CO[C@@H](C)O[C@H]5[C@H](O)[C@H]3O)[C@H]3COC(=O)[C@H]23)OCO4)cc(OC)c1O` [Etoposide, reference compound], for which the IC50 with MDA-MB-231 was more than 50 µM; with CFPAC-1 it was 42 µM; with H460 (setting [1]), 0.971 µM; in the test on A549 (Homo sapiens; lung, A549, 48 h), 2.16 µM; with H1650, more than 50 µM; with H146 it was more than 50 µM. In addition, the IC50 in the test with HCT-116 is 7.29 µM; in the test with HUVEC (Homo sapiens) it was more than 50 µM; with H1299, 40.1 µM; with MCF-7, more than 50 µM; in the test on BxPC-3 it was more than 50 µM; in the test with H1975 it was more than 50 µM. Moreover, the IC50 with WI-38 (Homo sapiens) was more than 50 µM; in the test on HL-60 (Homo sapiens), 2.43 µM; with HCC827, more than 50 µM.
As to `COc1cc([C@@H]2C3=C(COC3=O)Cc3cc4c(cc32)OCO4)cc(OC)c1OCc1ccc(C(F)(F)F)cc1` [example 7, (5S)-5-[3,5-Dimethoxy-4-(4-trifluoromethyl-benzyloxy)-phenyl]-5,9-dihydro-8H-furo[3′,4′:6,7]naphtho[2,3-d][1,3]dioxol-6-one], the IC50 with MDA-MB-231 is more than 50 µM; in the test with H460 (Homo sapiens, NCI-H460, 48 h) it was not below 50 µM; in the test with H460 (H460, 48 h) it was more than 50 µM; in the test on A549 (Homo sapiens, A549, 48 h, lung), not below 50 µM; with A549 (lung, A549, 48 h) it was more than 50 µM; with HCT-116 it was more than 50 µM. Further, the IC50 with HUVEC was more than 50 µM; with HUVEC (Homo sapiens), not below 50 µM; with WI-26 (Homo sapiens, 48 h), not below 50 µM; in the test on WI-38 (Homo sapiens), not below 50 µM; in the test on WI-38 it was more than 50 µM; in the test with HL-60 (Homo sapiens), more than 50 µM.
`COc1cc([C@@H]2C3=C(COC3=O)Cc3cc4c(cc32)OCO4)cc(OC)c1OCc1ccc(F)cc1` [example 6, (5S)-5-[3,5-Dimethoxy-4-(4-fluorobenzyloxy)-phenyl]-5,9-dihydro-8H-furo[3′,4′:6,7]naphtho[2,3-d][1,3]dioxol-6-one]: the IC50 was 0.247 µM in the test on K562; more than 50 µM in the test on MDA-MB-231; 0.437 µM in the test with H460 (Homo sapiens, NCI-H460, 48 h); 0.288 µM in the test on A549 (Homo sapiens, A549, 48 h, lung); more than 50 µM in the test on HCT-116; more than 50 µM in the test with HUVEC. In addition, the IC50 with HUVEC (Homo sapiens) was not below 50 µM; with WI-26 (Homo sapiens, 48 h), not below 50 µM; with WI-38 (Homo sapiens) it was not below 50 µM; in the test with WI-38, more than 50 µM; with HL-60 (Homo sapiens), more than 50 µM. Moreover, the “effects against the blood cancer cell line K562 (in words)” value in the test on K562 is given as “particularly excellent effects”.
